Key:
[1] = Toxicity in female BALB/c nude mouse xenografted with human MDA-MB-231 cells assessed as morphological change in heart at 5 to 10 mg/kg, ip administered daily and measured every 2 days for 21 days by hematoxylin and eosin staining based analysis; format: organism-based; conditions: in vivo, 504 h, dose 5-10 mg/kg, time 21 day
MDA-MB-231 [2] = assay: Antitumor activity against human MDA-MB-231 cells xenografted in female BALB/c nude mouse assessed as tumor growth inhibition at 10 mg/kg, ip administered daily and measured every 2 days for 21 days relative to control; format: functional; conditions: MDA-MB-231, 504 h, time 21 day, read-out: TGI
[3] = Toxicity in female BALB/c nude mouse xenografted with human MDA-MB-231 cells assessed as morphological change in liver at 5 to 10 mg/kg, ip administered daily and measured every 2 days for 21 days by hematoxylin and eosin staining based analysis; format: organism-based; conditions: in vivo, 504 h, dose 5-10 mg/kg, time 21 day
[4] = Toxicity in female BALB/c nude mouse xenografted with human MDA-MB-231 cells assessed as morphological change in lung at 5 to 10 mg/kg, ip administered daily and measured every 2 days for 21 days by hematoxylin and eosin staining based analysis; format: organism-based; conditions: in vivo, 504 h, dose 5-10 mg/kg, time 21 day
MDA-MB-231 [5] = assay: Antitumor activity against human MDA-MB-231 cells xenografted in female BALB/c nude mouse assessed as tumor growth inhibition at 5 mg/kg, ip administered daily and measured every 2 days for 21 days relative to control; format: functional; conditions: MDA-MB-231, 504 h, time 21 day, read-out: TGI
[6] = Toxicity in female BALB/c nude mouse xenografted with human MDA-MB-231 cells assessed as morphological change in kidney at 5 to 10 mg/kg, ip administered daily and measured every 2 days for 21 days by hematoxylin and eosin staining based analysis; format: organism-based; conditions: in vivo, 504 h, dose 5-10 mg/kg, time 21 day
[7] = Toxicity in female BALB/c nude mouse xenografted with human MDA-MB-231 cells assessed as body weight loss at 5 to 10 mg/kg, ip administered daily and measured every 2 days for 21 days; format: organism-based; conditions: in vivo, 504 h, dose 5-10 mg/kg, time 21 day
[8] = Toxicity in female BALB/c nude mouse xenografted with human MDA-MB-231 cells assessed as morphological change in spleen at 5 to 10 mg/kg, ip administered daily and measured every 2 days for 21 days by hematoxylin and eosin staining based analysis; format: organism-based; conditions: in vivo, 504 h, dose 5-10 mg/kg, time 21 day

For `Cl.O=C1C(=O)c2c(oc3c2CCN(CCN2CCCCC2)C3=O)-c2ccccc21`, which Activity [1] is on record?
The Activity was “Non-toxic”.

What about the inhibition in vivo at 10 mg/kg (MDA-MB-231 [2]) of the same compound?
Its inhibition in vivo at 10 mg/kg is 56.8%.

What about the Activity [3] of the same compound?
Its Activity is “Non-toxic”.

What about the Activity [4] of the same compound?
Its Activity is “Non-toxic”.

What about the inhibition in vivo at 5 mg/kg (MDA-MB-231 [5]) of the same compound?
Its inhibition in vivo at 5 mg/kg is 28.9%.

And the Activity [6]?
Its Activity is “Non-toxic”.

What about the Activity [7] of the same compound?
The Activity was “Non-toxic”.

What about the Activity [8] of the same compound?
Its Activity is “Non-toxic”.
